Where no end group is shown, it is not given here.
Columns and labels:
[1] = tested on: CD4^+CD25^+Foxp3^+ Tregs; test: Tregs co-cultured with SP with or without Spantide I: phenotype, cytokines, suppression of effector T cell proliferation; format: cell-based, C57BL/6 mice
Experimental: CD4^+CD25^+Foxp3^+ Tregs were isolated from draining lymph nodes (DLN) of naïve female C57BL/6 mice.
Isolated Tregs were co-cultured with SP (1 μM) with or without Spantide I (10 μM) for 48 hours. Phenotype of Tregs was evaluated by flow cytometry, and the capacity of Tregs to suppress effector T cell proliferation was investigated.

[2] = tested on: Foxp3^+CD4^+ Tregs; test: Isolated Tregs co-cultured with SP, with or without NK1R antagonist (recovered Tregs); format: cell-based, mice; details: SP at 0.1, 1, and 10 nM in vitro; tested 0.01-10 nM
Experimental: FIGS. 3A and 3B show the results of the in vitro effect of SP on Treg cells. The normal functional Foxp3^+CD4^+ Tregs were isolated from naive mice and co-cultured with different doses of SP, e.g., at 0.01, 0.1, 1, and 10 nM in vitro. […] On the contrary, addition of the NK1R antagonist prevented the loss of Tregs (FIG. 3B).

[3] = tested on: bone marrow-derived dendritic cells (BMDCs); test: BMDC maturation (MHC II expression) in the presence of SP, flow cytometry; format: cell-based, C57BL/6 mice; details: SP 25, 50 and 100 μg/mL for 18 hours; p=0.03 and p=0.02 for 50 and 100 μg/mL vs. vehicle
Experimental: Generation of Bone Marrow-Derived Dendritic Cells (BMDCs): Long bones (femur and tibia) were harvested from C57BL/6 mice and cell suspension was prepared. Cells were incubated with Red blood cell (RBC) lysis buffer (Sigma-Aldrich, St. Louis, Mo.) at 37° C. for 10 minutes. […]
Single Cell Suspension Preparation and Flow Cytometry: Submandibular and cervical draining lymph nodes (DLNs) were harvested and single cell suspensions were prepared. […] Stained cells were examined using an LSRII Flow Cytometer (BD Biosciences, Franklin Lakes, N.J., USA), and data were analyzed using commercial Summit software (Summit v4.3; Dako Colorado, Inc., Fort Collins, Colo.).
Mature APCs play a key role in the activation of THh17 cells and the autoimmune response in DED (Barabino S. et al. Prog Retin Eye Res 2012, 31:271-85; Stevenson W, Chauhan S K, Dana R: Dry eye disease: an immune-mediated ocular surface disorder. Arch Ophthalmol 2012, 130:90-100; Hamrah P, et al. Invest Ophthalmol Vis Sci 2003, 44:581-9). Given that increased SP levels in response to desiccating stress was observed, the effect of SP on maturation of APCs was next evaluated. […]

[4] = tested on: corneal epithelial wound healing; details: topical application, diabetic mice; cited from earlier work

SP: substance P, an 11-amino acid neuropeptide, endogenous ligand of NK1R (RPKPQQFFGLM-NH2; ends and bridges not checked; UniProt P20366 58-68, looked up)
expression of inhibitory molecules Foxp3, CTLA4 and PD-1 by Tregs ([1]; SP 1 μM, 48 hours, in vitro): suppresses the expression
secretion of immunoregulatory cytokines (TGFβ and IL-10) by Tregs ([1]; SP 1 μM, 48 hours, in vitro): significantly lower levels
capacity of Tregs to suppress effector T cell proliferation in vitro ([1]; Tregs pre-incubated with SP): lower capacity
Tregs recovered after co-culture with SP [2]: significantly reduced Tregs
mean fluorescence intensity (MFI) of MHC II in BMDCs [3]: significant and dose-dependent increase
corneal epithelial wound healing [4]: promotes corneal epithelial wound healing
